According to patent US20230329989A1, “A PERSONAL CARE COMPOSITION COMPRISING AMINO ACIDS” (priority 2020, published 2023):

How the values were obtained:
S. epidermidis = test: Growth of S. epidermidis in the presence of a single amino acid as supplement; type: cell-based; details: 0.1% individual amino acid in 10% TSB + 1% glucose, 37° C., 24 hrs, absorbance at 600 nm normalized to control without amino acid; for activity at 0.1 %: Staphylococcus epidermidis
Experimental: The growth of the above commensal bacteria due to the presence of each of the twenty different amino acids separately was studied. All 20 L-amino acids were procured from Hi media. The stocks were prepared in distilled water and filter sterilized by passing it through 0.22 μm filter. A 100 mM sodium phosphate buffer pH 7.4 was prepared and filter sterilized. Reaction was set up in a 96 well flat bottom transparent plate. […] The final concentration of individual amino acid was 0.1%. Each reaction was set up in triplicates. The plate was incubated at 37° C. under stationary conditions for 24 hrs. After 24 hrs, the absorbance of the plate was measured at 600 nm using TECAN plate reader. The absorbance values were then normalized to control (S. epidermidis grown in 10% TSB+1% glucose).

S. aureus = test: Growth kinetics of S. aureus with individual amino acids; type: cell-based; details: 0.1 wt % individual amino acid; for Absorbance at 600 nm: S. aureus, growth till 20 hours; for inhibition of S. aureus (in words): among the seven selected
Experimental: In order to identify a set of amino acids which are major contributors to the higher growth rate of S. aureus in Mix 7, growth kinetics experiments were carried out with all seven individual amino acids. […] The experiment was carried out for growth till 20 hours. They were carried out at 0.1 wt % concentration of the individual amino acid.

CC[C@H](C)[C@H](N)C(=O)O [Example 1J, Isoleucine]
activity at 0.1 % (S. epidermidis): 99%

NC(=O)C[C@H](N)C(=O)O [Example 1C, Asparagine]
activity at 0.1 % (S. epidermidis): 113%

C[C@@H](O)[C@H](N)C(=O)O [Example 1R, Threonine]
activity at 0.1 % (S. epidermidis): 126%
Absorbance at 600 nm (S. aureus): 0.697

CC(N)C(=O)O (stereo not drawn) [Example 1A, Alanine]
activity at 0.1 % (S. epidermidis): 139%
inhibition of S. aureus (in words) (S. aureus): maximum inhibition
Absorbance at 600 nm (S. aureus): 0.447

NC(CC(=O)O)C(=O)O (stereo not drawn) [Example 1D, Aspartic acid]
activity at 0.1 % (S. epidermidis): 121%
inhibition of S. aureus (in words) (S. aureus): maximum inhibition
Absorbance at 600 nm (S. aureus): 0.540

NCC(=O)O [Example 1F, Glycine]
% growth (S. epidermidis): 135%
Absorbance at 600 nm (S. aureus): 0.863

CC(C)[C@H](N)C(=O)O [Example 1T, Valine]
activity at 0.1 % (S. epidermidis): 96%

CC(C)C[C@H](N)C(=O)O [Example 1K, Leucine]
activity at 0.1 % (S. epidermidis): 96%

N[C@@H](Cc1c[nH]cn1)C(=O)O [Example 11, Histidine]
activity at 0.1 % (S. epidermidis): 96%

NC(CS)C(=O)O (stereo not drawn) [Example 1E, Cysteine]
activity at 0.1 % (S. epidermidis): 121%
inhibition of S. aureus (in words) (S. aureus): maximum inhibition
Absorbance at 600 nm (S. aureus): 0.476

NC(=O)CC[C@H](N)C(=O)O [Example 1H, Glutamine]
activity at 0.1 % (S. epidermidis): 109%

CSCC[C@H](N)C(=O)O [Example 1M, Methionine]
activity at 0.1 % (S. epidermidis): 87%

O=C(O)[C@@H]1CCCN1 [Example 1O, Proline]
activity at 0.1 % (S. epidermidis): 93%

N[C@@H](Cc1ccc(O)cc1)C(=O)O [Example 1Q, Tyrosine]
activity at 0.1 % (S. epidermidis): 120%
inhibition of S. aureus (in words) (S. aureus): maximum inhibition
Absorbance at 600 nm (S. aureus): 0.478

N[C@@H](CO)C(=O)O [Example 1P, Serine]
activity at 0.1 % (S. epidermidis): 134%
inhibition of S. aureus (in words) (S. aureus): maximum inhibition
Absorbance at 600 nm (S. aureus): 0.504
